From US5288725A, “Pyrroloquinoline Bradykinin antagonist” (Merck & Co., Inc., priority 1992, dated 1994)
Where no end group is shown, it is not given here.

Legend:
[1] = target: T1, cholinergic muscarinic receptors (Cavia porcellus, UniProt H0VRN8); assay: [3H] Quinuclidinyl benzilate binding, guinea pig ileum membranes
T1 construct: guinea pig ileum membranes as described by Watson; from tissue; host or cells: guinea pig ileum membranes
T1 sequence (H0VRN8 1-466): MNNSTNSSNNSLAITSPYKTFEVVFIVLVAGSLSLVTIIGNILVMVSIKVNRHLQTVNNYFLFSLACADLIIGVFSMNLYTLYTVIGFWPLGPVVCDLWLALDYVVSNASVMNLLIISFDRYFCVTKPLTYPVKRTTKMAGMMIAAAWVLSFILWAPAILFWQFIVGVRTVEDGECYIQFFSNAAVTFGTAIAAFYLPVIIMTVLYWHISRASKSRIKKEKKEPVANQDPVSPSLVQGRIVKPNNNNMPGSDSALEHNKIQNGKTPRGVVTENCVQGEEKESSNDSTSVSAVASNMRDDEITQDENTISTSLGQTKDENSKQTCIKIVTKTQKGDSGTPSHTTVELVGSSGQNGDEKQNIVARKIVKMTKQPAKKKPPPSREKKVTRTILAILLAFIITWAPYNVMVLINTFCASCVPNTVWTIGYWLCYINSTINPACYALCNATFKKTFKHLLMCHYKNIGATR

histamine H1 receptor = assay: H1 histaminergic receptor activity in rabbit aorta (agonist histamine)
Procedure: (§1) Antagonism of BK-β1 receptors was measured using spiral strips of rabbit thoracic aorta as described by Regoli et. al., Eur. J. Pharmacol., 127,219 (1986).
(§2) The α1 -adrenergic and H1 histaminergic receptor activity of compounds were also assessed using rabbit aorta with norepinephrine and histamine, respectively, as agonists.

[2] = target: T2, cholinergic muscarinic receptors (Rattus norvegicus, UniProt P10980); assay: [3H] Quinuclidinyl benzilate binding, rat cardiac membranes
T2 construct: rat cardiac membranes; from tissue; host or cells: rat cardiac membranes
T2 sequence (P10980 1-466): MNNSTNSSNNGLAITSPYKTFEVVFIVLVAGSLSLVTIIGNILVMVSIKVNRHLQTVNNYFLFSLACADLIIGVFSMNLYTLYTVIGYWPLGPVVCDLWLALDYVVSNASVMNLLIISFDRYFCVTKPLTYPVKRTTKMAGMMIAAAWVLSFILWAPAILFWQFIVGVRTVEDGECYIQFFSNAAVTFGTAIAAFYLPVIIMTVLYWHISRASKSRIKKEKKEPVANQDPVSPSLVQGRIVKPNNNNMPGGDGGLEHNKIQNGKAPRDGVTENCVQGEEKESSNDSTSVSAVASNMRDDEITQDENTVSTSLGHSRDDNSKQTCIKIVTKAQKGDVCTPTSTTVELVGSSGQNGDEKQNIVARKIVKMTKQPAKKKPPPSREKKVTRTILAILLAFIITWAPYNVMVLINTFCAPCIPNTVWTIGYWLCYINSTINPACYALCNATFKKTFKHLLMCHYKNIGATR

BK-β1 receptors = target: T3, BK-β1 receptors (Oryctolagus cuniculus, UniProt P48748); assay: Antagonism of BK-β1 receptors, spiral strips of rabbit thoracic aorta (agonist des Arg9-BK); conditions: Schild analysis
T3 construct: spiral strips of rabbit thoracic aorta; from tissue; host or cells: rabbit thoracic aorta spiral strips
T3 sequence (P48748 1-352): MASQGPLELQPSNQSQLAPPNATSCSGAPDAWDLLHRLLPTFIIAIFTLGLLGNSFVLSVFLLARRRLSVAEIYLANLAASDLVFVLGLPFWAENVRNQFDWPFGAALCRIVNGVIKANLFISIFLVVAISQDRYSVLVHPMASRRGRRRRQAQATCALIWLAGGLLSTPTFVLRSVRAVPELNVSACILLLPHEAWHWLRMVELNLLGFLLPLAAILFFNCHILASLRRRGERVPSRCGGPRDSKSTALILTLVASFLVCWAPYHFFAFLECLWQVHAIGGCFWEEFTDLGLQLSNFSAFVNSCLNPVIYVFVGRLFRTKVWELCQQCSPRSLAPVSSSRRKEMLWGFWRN
Procedure: as §1

α1-adrenergic receptor = α1-adrenergic receptor activity in rabbit aorta (agonist norepinephrine)
Procedure: as §1, §2

BK β2 receptor = target: T4, BK β2 receptor (Cavia porcellus, UniProt O70526); assay: [3H] BK radioligand binding, guinea pig ileum membranes; conditions: read-out: IC50, inhibition of [3H] BK binding
T4 construct: from tissue; host or cells: guinea pig ileum membranes
T4 sequence (O70526 1-372): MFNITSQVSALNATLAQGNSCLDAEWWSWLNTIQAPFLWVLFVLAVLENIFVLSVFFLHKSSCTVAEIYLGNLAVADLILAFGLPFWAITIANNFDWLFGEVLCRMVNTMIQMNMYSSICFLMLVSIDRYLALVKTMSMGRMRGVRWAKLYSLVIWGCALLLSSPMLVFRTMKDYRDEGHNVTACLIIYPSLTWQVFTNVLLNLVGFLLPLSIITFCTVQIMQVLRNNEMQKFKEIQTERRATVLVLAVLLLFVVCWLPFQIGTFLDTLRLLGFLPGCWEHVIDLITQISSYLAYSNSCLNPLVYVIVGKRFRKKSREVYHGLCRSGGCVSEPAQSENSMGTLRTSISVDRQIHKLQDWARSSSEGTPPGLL

α1-adrenergic receptors = assay: [3H] Prazosin radioligand binding, rat brain
[3] = target: cholinergic muscarinic receptors; assay: [3H] Quinuclidinyl benzilate binding, rat cerebral cortex membranes
[4] = tested on: bradykinin receptors of rat vas deferens; conditions: cited from earlier work
β1 receptor = conditions: compared with BK; cited from earlier work
β2 receptors = conditions: cited from earlier work

Molecule: CC(C)=CCNC(=N)NCCC[C@@H]1Nc2ccc(C(=O)OC/C(C)=C/CNC(=N)N)cc2[C@@H]2[C@H]1CCN2C(=N)NCC=C(C)C (relative stereo) [Compound I]
- IC50 [1]: 100 nM
- mode of antagonism, histamine H1 receptor (histamine H1 receptor): competitive antagonist
- pA2 value, histamine H1 receptor (histamine H1 receptor): 5.9
- IC50 [2]: 100 nM
- mode of antagonism, β1 receptor (BK-β1 receptors): competitive β1 receptor antagonist
- Kb (BK-β1 receptors; read-out: pA2 value, β1 receptor (converted)): 2000 nM
- mode of antagonism, α1 receptor (α1-adrenergic receptor): competitive antagonist
- pA2 value, α1 receptor (α1-adrenergic receptor): 7.1
- IC50 (BK β2 receptor): 200 nM
- IC50 (α1-adrenergic receptors): 60 nM
- IC50 [3]: 100 nM

Molecule: RPPGFSPFR [BK]
- musculotropic or postjunctional action ([4]; isolated rat vas deferens): contracted the smooth muscle generating an increased muscle tone
- neurogenic or presynaptic effect ([4]; isolated rat vas deferens, electrically driven twitches): potentiated the magnitude of the muscular response to the electrically driven twitches

Molecule: des-Arg^9 -bradykinin
- β1 receptor agonist potency (β1 receptor): higher potency than BK
- pre- or postsynaptic BK like responses ([4]; rat vas deferens): inactive
- activity at β2 receptors (β2 receptors): relatively inactive
